In brackets after ≈: the same amount, converted by molar mass.
Columns and labels:
Type in all cases: functional, cell-based
KB = assay: Cytotoxicity against human KB cells by colorimetric assay
[1] = Cytotoxicity against human BC cells by colorimetric assay
NCI-H187 = assay: Cytotoxicity against human NCI-H187 cells by colorimetric assay

| Structure (SMILES) | IC50 (KB) | IC50 [1] | IC50 (NCI-H187) |
| --- | --- | --- | --- |
| C=C(C)[C@@H]1CC[C@]2(C(=O)O)CC[C@]3(C)[C@H](CC[C@@H]4[C@@]5(C)CC[C@H](OC(=O)/C=C/c6ccc(O)c(OC)c6)C(C)(C)[C@@H]5CC[C@]43C)[C@@H]12 | 3.8 µg/mL (≈ 6 µM) | 3 µg/mL (≈ 4.74 µM) | 1.8 µg/mL (≈ 2.84 µM) |
| Cc1c2ccncc2c(C)c2c1[nH]c1ccccc12 [ELLIPTECINE] | 0.3 µg/mL (≈ 1.22 µM) | 0.3 µg/mL (≈ 1.22 µM) | 0.3 µg/mL (≈ 1.22 µM) |

From ChEMBL document CHEMBL1151285, “Dammarane triterpenes from the hypocotyls and fruits of Ceriops tagal” (J Nat Prod, 2005)
